Experiments:
oxido-squalene cyclase [1] = test: In vivo test to measure inhibition of oxido-squalene cyclase / cholesterol biosynthesis in the rat; details: 2 mg/kg, oral, female rats
Method: (b) In vivo Test to Measure Inhibition of Oxido-Squalene Cyclase
The ability of a compound to inhibit oxido-squalene cyclase and/or inhibit cholesterol biosynthesis may be assessed by a routine laboratory procedure carried out in the rat. The test involves administration of the compound to rats on a reversed lighting regimen. Female rats (35-55 g) are housed in reverse lighting conditions (red light from 0200 h-1400 h) for a period of about 2 weeks prior to test. Animals are allowed free access to chow and drinking water throughout this period. At test, animals should weigh 100-140 g. The rats are dosed orally, with the compound (typically 10-50 mg/kg) formulated in a polyethylene glycol/hydroxypropylmethyl cellulose mix. After 1 hour the rats are given […] sodium mevalonate (15 μCi/kg) intraperitoneally. Two hours after administration of the compound the rats are terminated and a piece of liver removed and weighed. The tissue is saponified at 80° C. for 2 hours in an ethaniolic/potassium hydroxide solution (80% w/v aqueous KOH diluted 1:10 with ethanol). Water (2 ml) is added and the mixture extracted with iso-hexane (2×5 ml). The organic extracts are combined, evaporated to dryness under a stream of nitrogen and the residue is dissolved in a mixture of acetonitrile/iso-propanol (300 μl). […] The radio-label content of each fraction is assessed using a radio chemical flow detector. […]

oxido-squalene cyclase [2] = test: In vitro test to measure inhibition of microsomal oxido-squalene cyclase; format: biochemical; details: 1 μM; rat liver microsomes
Method: (a) In vitro Test to Measure Inhibition of Oxido-squalene Cyclase
This test measures the inhibition of microsomal oxido-squalene cyclase in vitro by compounds at set concentrations in the incubation medium.
Microsomes are prepared from rat liver according to methods known in the art, for example, the method described in published European Patent Application No 324,421 and stored in liquid nitrogen prior to assay. Assay vials are kept at 37° C. throughout the incubation. The microsomes typically contain 15-20 mg of protein per ml of microsomes. For assay, 1 ml of microsomes are diluted by the addition of 722 μl of 50 mM phosphate buffer pH 7.4.
Phosphate buffered Tween 80 (polyoxyethylene sorbitan […]) is prepared by adding 0.1 g Tween 80 to 100 ml of 50 mM phosphate buffer.
A stock solution of oxido-squalene is made up as a solution in ethanol (0.65 mg.ml^-1). 18 μl of radio-labelled oxido-squalene (1 μCi.ml^-1) is evaporated to dryness under a stream of nitrogen and redissolved in 1 ml of ethanol and 1 ml of the stock solution of oxido-squalene is added.
The test compound is dissolved in dimethyl sulphoxide to give a 10^-4 M stock solution. […]
The samples are then placed in a water bath at 80° C. for 2 hours to saponify. […] Reaction rate is measured as the conversion of oxido-squalene to lanosterol, and the effects of test compounds are expressed as an inhibition of this process.

inhibition of oxido-squalene cyclase (conversion of oxido-squalene to lanosterol) (oxido-squalene cyclase [2])	SMILES	inhibition of cholesterol biosynthesis (oxido-squalene cyclase [1])
–	Fc1cc(Br)ccc1CN1CCN(c2ccncc2)CC1 [Example 18, 1-(4-pyridyl)-4-(2-fluoro-4-bromobenzyl)piperazine]	59%
100%	O=S(=O)(c1ccc(Br)cc1)N1CCN(c2ccncc2)CC1 [Example 25, 1-(4-pyridyl)-4-(4-bromophenylsulphonyl)piperazine]	–
–	N#Cc1ccc(S(=O)(=O)Nc2ccc(N3CCN(c4ccncc4)CC3)cc2)cc1 [Example 27, 1-(4-pyridyl)-4-(4-cyanophenylsulphonamidophenyl)piperazine]	70%
